# Measurements published in patent US20020009713A1, “Methods for identifying modulators of neuronal growth” (priority 2000, published 2002).
# What was measured:
# rat sympathetic neurons = experiment: MTT survival assay of cultured sympathetic neurons; format: cell-based; conditions: cultured in NGF or NGF+KCl
# Protocol: Neurons were plated at low density (approximately one ganglion/well) in Nunclon™ 4-well culture dishes (Gibco BRL, Burlington, Ontario, Canada), coated with either rat tail collagen or poly-D-lysine and laminin (both from Collaborative Biomedical Products, Bedford, Mass.). Culture medium was UltraCulture (BioWhittaker, Walkersville, Md.), supplemented with 3% rat serum (Harlan Bioproducts, Madison, Wis.), 2 mM glutamine, 100 U/ml penicillin, 100 μg/ml streptomycin (all from BioWhittaker), and for the first two days, 7 μM cytosine arabinoside (Sigma-Aldrich Canada Ltd., Oakville, Ontario, Canada).
# NGF-dependent neurons were selected by culturing sympathetic neurons for five days in the presence of 50 ng/ml NGF. Neurons were washed three times for one hour each in neurotrophin-free media, and were then fed with media containing 10 ng/ml NGF alone, or various concentrations of NGF plus either 100 ng/ml BDNF, 10 μg/ml αBDNF, or a 1:100 dilution of antiserum containing the p75^NTR antibody, REX (Weskamp and Reichardt, Neuron 6: 649-663, 1991). Each condition was repeated in triplicate, and analysis of survival was performed 48 hours later by using nonradioactive cell proliferation (MTT) assays (Celltitre 96; Promega; Belliveau et al., J. Cell Biol. 136:375-388, 1997). Specifically, 50 μl of the MTT reagent was added to 500 μl media in each well, and incubated for two hours at 37° C. After aspiration of the MTT containing media, 100 μl of a 0.065N HCl/isopropanol mixture was added to each well to lyse the cells, and colorimetric analysis was performed using an ELISA reader. For rat sympathetic neurons, 10 ng/ml NGF represents 100% survival, therefore all other values were considered to be relative to 10 ng/ml NGF. For mouse neurons, 7.5 ng/ml NGF represents 100% survival, and was thus considered to be the 100% survival threshold for neuritogenesis experiments.
# [1] = test system: postnatal sympathetic neurons (SCG neurons); experiment: Campenot chamber neurite growth assay; format: cell-based, rat; conditions: 50 μM U0126 with 10 ng/ml NGF
# Protocol: We have devised a method for quantitatively assaying neurite growth. In this assay, the cell bodies of neurons are plated in Campenot chamber, a compartmentalized dish that has scratches or grooves in the matrix. The compartments are physically separated from each other by, for example, a Teflon® divider. The cells are placed in the central compartment. The scratches allow neurites to extend from the neuronal cell bodies and into adjacent compartments (FIG. 10A).
# Neurites were induced to grow into HGF supplemented side compartments, and then visualized by staining against tubulin. Adenoviral-mediated expression of DN MEK in SCG neurons decreased neuritogenesis by 39% (FIGS. 10B, 10C).
# We cultured postnatal sympathetic neurons in Campenot chambers. […] Addition of 50 μM U0126 in conjunction with 10 ng/ml NGF abrogates this growth while having no effects on cell survival (FIG. 15).
# [2] = test system: sympathetic neurons exogenously expressing TrkB; conditions: U0126 added with 25 ng/ml BDNF, dose-dependent
# Protocol: We transduced postnatal sympathetic neurons with an adenovirus encoding TrkB. In Campenot dishes, these neurons grow processes into compartments containing 25 ng/ml BDNF.
# sympathetic neurons = experiment: Quantitative dot-blot of MAP2 association with microtubules and microtubule stability; format: cell-based, rat; conditions: neurons maintained in NGF or NGF+KCl
# Protocol: FIG. 22 is a schematic illustration showing immuno-dot blot analysis of MAP2 association and tubulin dynamics in SCG neurons. […]
# Microtubules were isolated from cultured sympathetic neurons, and the relative amount of MAP2 present per microgram tubulin was determined using quantitative dot-blot analysis. […] Depolarization enhances MAP2 levels and CamKII phosphorylation in sympathetic neurons. We performed western blot analysis of sympathetic neurons treated with 10 ng/ml NGF, 50 mM KCl, or NGF+KCl. Lysates containing equal amounts of protein were separated by SDS-PAGE, transferred to nitrocellulose, and then probed for MAP2, phosphorylated-CamKII, phosphorylated-ERKs, or total ERK protein. KCl increases the amount of MAP2 present in sympathetic neurons, and enhances CamKII phosphorylation.
# Inhibition of either CamKII or MEK is sufficient to inhibit activitydependent dendrite formation. Immunocytochemical analysis for MAP2 on sympathetic neurons cultured in the presence of NGF+KCl with or without 10 um KN62, 75 um PD98059, 100 nM H-89 or 10 uM forskolin. […] In this study, microtubule stability was determined in sympathetic neurons maintained in NGF or NGF+KCl, and treated with selective pharmacological inhibitors.
structure (smiles),measurement,setting,value
N#CC(=C(/N)Sc1ccccc1N)/C(C#N)=C(\N)Sc1ccccc1N [U0126],survival of sympathetic neurons (MTT),rat sympathetic neurons,None of these compounds perturbs
same,NGF-induced neuronal growth into side compartment,[1],abrogates
same,cell survival,[1],no effects
same,TrkB-mediated neuronal growth,[2],dramatically reduced
same,KCl-induced increase in microtubule stability,sympathetic neurons,completely inhibit
